From ChEMBL document CHEMBL5579795, “Therapeutic potential of Coumarin-polyphenolic acid hybrids in PD: Inhibition of α-Syn aggregation and disaggregation of preformed fibrils, leading to reduced neuronal inclusion formation” (Bioorg Med Chem Lett, 2024)
pIC50: −log10 of the molar value.

What was measured:
[1] = Cytotoxicity against rat PC-12 cells assessed as cell viability at 100 uM measured after 24 hrs by CCK-8 assay (reference value: 100%); format: toxicity, cell-based; conditions: read-out: Activity
Alpha-synuclein = Alpha-synuclein (Homo sapiens, UniProt P37840); assay: Inhibition of alpha-Synuclein (unknown origin) aggregation assessed as aggregation inhibition ratio measured after 72 hrs by Thioflavin T based fluorescence assay

For `O=C(Nc1ccc2oc(=O)ccc2c1)c1cc(O)ccc1O`, which viability at 24 h, 100 µM [1] is on record?
Its viability at 24 h, 100 µM is over 80%.

Which viability at 24 h, 100 µM [1] does the source give for `O=C(/C=C/c1cc(O)ccc1O)Nc1ccc2oc(=O)c(NC(=O)/C=C/c3cc(O)ccc3O)cc2c1` here?
Its viability at 24 h, 100 µM is over 90%.

Which viability at 24 h, 100 µM [1] does the source give for `O=C(/C=C/c1cc(O)c(O)c(O)c1)Nc1ccc2oc(=O)ccc2c1` here?
The viability at 24 h, 100 µM was over 90%.

With `O=C(/C=C/c1cc(O)ccc1O)Nc1ccc2oc(=O)ccc2c1` as the molecule, how does the viability at 24 h, 100 µM [1] read?
Its viability at 24 h, 100 µM is over 90%.

With `Oc1cc(O)c2c(c1)O[C@H](c1cc(O)c(O)c(O)c1)[C@H](O)C2` [EPIGALLOCATECHIN] as the molecule, how does the pIC50 (Alpha-synuclein) read?
Its pIC50 is 5.59.
